Laboratory results published in PubChem BioAssay (NCI).
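Dose response: 5 concentrations. Exposure: 48 h. Format: 96-well plates. Endpoint: linear interpolation; highest concentration if not reached. At the GI50, growth is halved. TGI marks complete inhibition of growth.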

What was measured:
Test in all cases: inhibition of tumour cell growth, NCI panel, 48 h
SF-295 CNS = test system: SF-295 CNS
NCI/ADR-RES ovarian = test system: NCI/ADR-RES ovarian
EKVX NSCLC = test system: EKVX NSCLC
DU-145 prostate = test system: DU-145 prostate
OVCAR-8 ovarian = test system: OVCAR-8 ovarian
NCI-H460 lung = test system: NCI-H460 lung
UACC-62 melanoma = test system: UACC-62 melanoma
OVCAR-4 ovarian = test system: OVCAR-4 ovarian
SK-MEL-5 melanoma = test system: SK-MEL-5 melanoma
A549 NSCLC = test system: A549 NSCLC
T-47D breast = test system: T-47D breast
HL-60(TB) leukemia = test system: HL-60(TB) leukemia
SF-268 CNS = test system: SF-268 CNS
HT29 colon = test system: HT29 colon
UACC-257 melanoma = test system: UACC-257 melanoma
PC-3 prostate = test system: PC-3 prostate
COLO 205 colon = test system: COLO 205 colon
HCT-116 colon = test system: HCT-116 colon
MDA-MB-435 = test system: MDA-MB-435
RXF 393 renal = test system: RXF 393 renal
OVCAR-5 ovarian = test system: OVCAR-5 ovarian
MCF7 breast = test system: MCF7 breast
SNB-75 CNS = test system: SNB-75 CNS
NCI-H23 lung = test system: NCI-H23 lung
CCRF-CEM leukemia = test system: CCRF-CEM leukemia
SF-539 CNS = test system: SF-539 CNS
HCT-15 colon = test system: HCT-15 colon
OVCAR-3 ovarian = test system: OVCAR-3 ovarian
LOX IMVI melanoma = test system: LOX IMVI melanoma
NCI-H522 lung = test system: NCI-H522 lung
MALME-3M melanoma = test system: MALME-3M melanoma
CAKI-1 renal = test system: CAKI-1 renal
SR leukemia = test system: SR leukemia
IGROV1 ovarian = test system: IGROV1 ovarian
MDA-MB-231 breast = test system: MDA-MB-231 breast
M14 melanoma = test system: M14 melanoma
HCC-2998 colon = test system: HCC-2998 colon
HOP-62 NSCLC = test system: HOP-62 NSCLC
SK-MEL-2 melanoma = test system: SK-MEL-2 melanoma
ACHN renal = test system: ACHN renal
U251 CNS = test system: U251 CNS
MOLT-4 leukemia = test system: MOLT-4 leukemia
KM12 colon = test system: KM12 colon
786-0 renal = test system: 786-0 renal
A498 renal = test system: A498 renal
TK-10 renal = test system: TK-10 renal
SN12C renal = test system: SN12C renal
BT-549 breast = test system: BT-549 breast
UO-31 renal = test system: UO-31 renal
HS 578T breast = test system: HS 578T breast
SK-OV-3 ovarian = test system: SK-OV-3 ovarian
K-562 leukemia = test system: K-562 leukemia
SNB-19 CNS = test system: SNB-19 CNS
RPMI-8226 leukemia = test system: RPMI-8226 leukemia
NCI-H226 lung = test system: NCI-H226 lung
SW-620 colon = test system: SW-620 colon
SK-MEL-28 melanoma = test system: SK-MEL-28 melanoma
HOP-92 NSCLC = test system: HOP-92 NSCLC

COc1ccc(-c2ccc(-c3ccc(C(=N)N)o3)o2)cc1
GI50 (SF-295 CNS): 1.68 µM
TGI (SF-295 CNS): 3.51 µM
GI50 (NCI/ADR-RES ovarian): 1.88 µM
TGI (NCI/ADR-RES ovarian): 10.1 µM
GI50 (EKVX NSCLC): 2.79 µM
TGI (EKVX NSCLC): 14.5 µM
GI50 (DU-145 prostate): 1.91 µM
TGI (DU-145 prostate): 4.86 µM
GI50 (OVCAR-8 ovarian): 3.19 µM
TGI (OVCAR-8 ovarian): 11.4 µM
GI50 (NCI-H460 lung): 1.17 µM
TGI (NCI-H460 lung): 3.28 µM
GI50 (UACC-62 melanoma): 1.29 µM
TGI (UACC-62 melanoma): 3.05 µM
GI50 (OVCAR-4 ovarian): 2.22 µM
TGI (OVCAR-4 ovarian): 12.2 µM
GI50 (SK-MEL-5 melanoma): 2.8 µM
TGI (SK-MEL-5 melanoma): 12.1 µM
GI50 (A549 NSCLC): 1.49 µM
TGI (A549 NSCLC): 4.79 µM
GI50 (T-47D breast): 1.53 µM
TGI (T-47D breast): 4.07 µM
GI50 (HL-60(TB) leukemia): 1.23 µM
TGI (HL-60(TB) leukemia): 3.16 µM
GI50 (SF-268 CNS): 2.04 µM
TGI (SF-268 CNS): 7.22 µM
GI50 (HT29 colon): 0.484 µM
TGI (HT29 colon): 2.82 µM
GI50 (UACC-257 melanoma): 11.1 µM
TGI (UACC-257 melanoma): 24.7 µM
GI50 (PC-3 prostate): 1.86 µM
TGI (PC-3 prostate): 7.07 µM
GI50 (COLO 205 colon): 1.25 µM
TGI (COLO 205 colon): 2.94 µM
GI50 (HCT-116 colon): 1.07 µM
TGI (HCT-116 colon): 3.01 µM
GI50 (MDA-MB-435): 0.293 µM
TGI (MDA-MB-435): 1.12 µM
GI50 (RXF 393 renal): 2.12 µM
TGI (RXF 393 renal): 8.81 µM
GI50 (OVCAR-5 ovarian): 2.42 µM
TGI (OVCAR-5 ovarian): 5.88 µM
GI50 (MCF7 breast): 0.325 µM
TGI (MCF7 breast): 1.57 µM
GI50 (SNB-75 CNS): 1.47 µM
TGI (SNB-75 CNS): 6.81 µM
GI50 (NCI-H23 lung): 4.34 µM
TGI (NCI-H23 lung): 18.3 µM
GI50 (CCRF-CEM leukemia): 1.84 µM
TGI (CCRF-CEM leukemia): 6.75 µM
GI50 (SF-539 CNS): 1.88 µM
TGI (SF-539 CNS): 3.63 µM
GI50 (HCT-15 colon): 0.675 µM
TGI (HCT-15 colon): 4.72 µM
GI50 (OVCAR-3 ovarian): 0.924 µM
TGI (OVCAR-3 ovarian): 2.74 µM
GI50 (LOX IMVI melanoma): 1.46 µM
TGI (LOX IMVI melanoma): 2.96 µM
GI50 (NCI-H522 lung): 1.09 µM
TGI (NCI-H522 lung): 3.48 µM
GI50 (MALME-3M melanoma): 3.97 µM
TGI (MALME-3M melanoma): 19.1 µM
GI50 (CAKI-1 renal): 1.75 µM
TGI (CAKI-1 renal): 4.29 µM
GI50 (SR leukemia): 0.417 µM
TGI (SR leukemia): 2.79 µM
GI50 (IGROV1 ovarian): 1.73 µM
TGI (IGROV1 ovarian): 7.03 µM
GI50 (MDA-MB-231 breast): 1.9 µM
TGI (MDA-MB-231 breast): 4.28 µM
GI50 (M14 melanoma): 1.47 µM
TGI (M14 melanoma): 3.87 µM
GI50 (HCC-2998 colon): 1.58 µM
TGI (HCC-2998 colon): 3.23 µM
GI50 (HOP-62 NSCLC): 1.51 µM
TGI (HOP-62 NSCLC): 4.51 µM
GI50 (SK-MEL-2 melanoma): 5.71 µM
TGI (SK-MEL-2 melanoma): 21.7 µM
GI50 (ACHN renal): 1.8 µM
TGI (ACHN renal): 4.2 µM
GI50 (U251 CNS): 1.74 µM
TGI (U251 CNS): 4.12 µM
GI50 (MOLT-4 leukemia): 1.2 µM
TGI (MOLT-4 leukemia): 4.3 µM
GI50 (KM12 colon): 0.585 µM
TGI (KM12 colon): 6.73 µM
GI50 (786-0 renal): 2.22 µM
TGI (786-0 renal): 5.64 µM
GI50 (A498 renal): 1.76 µM
TGI (A498 renal): 7.48 µM
GI50 (TK-10 renal): 7.97 µM
TGI (TK-10 renal): 21 µM
GI50 (SN12C renal): 2.02 µM
TGI (SN12C renal): 4.59 µM
GI50 (BT-549 breast): 4.55 µM
TGI (BT-549 breast): 16.9 µM
GI50 (UO-31 renal): 1.72 µM
TGI (UO-31 renal): 3.79 µM
GI50 (HS 578T breast): 4.33 µM
TGI (HS 578T breast): 18.4 µM
GI50 (SK-OV-3 ovarian): 5.63 µM
TGI (SK-OV-3 ovarian): 18.7 µM
GI50 (K-562 leukemia): 0.487 µM
TGI (K-562 leukemia): 2.12 µM
GI50 (SNB-19 CNS): 1.99 µM
TGI (SNB-19 CNS): 11.3 µM
GI50 (RPMI-8226 leukemia): 2.68 µM
TGI (RPMI-8226 leukemia): 7.85 µM
GI50 (NCI-H226 lung): 22 µM
TGI (NCI-H226 lung): 42.8 µM
GI50 (SW-620 colon): 0.532 µM
TGI (SW-620 colon): 2.43 µM
GI50 (SK-MEL-28 melanoma): 1.67 µM
TGI (SK-MEL-28 melanoma): 3.66 µM

C=CCc1cccc2cc(C(=O)Nc3ccccn3)c(=N)oc12
TGI (NCI/ADR-RES ovarian): > 100 µM
TGI (DU-145 prostate): > 100 µM
TGI (OVCAR-8 ovarian): > 100 µM
TGI (NCI-H460 lung): > 100 µM
TGI (UACC-62 melanoma): > 100 µM
TGI (OVCAR-4 ovarian): > 100 µM
TGI (SK-MEL-5 melanoma): > 100 µM
TGI (A549 NSCLC): > 100 µM
TGI (T-47D breast): > 100 µM
TGI (HL-60(TB) leukemia): > 100 µM
TGI (SF-268 CNS): > 100 µM
TGI (HT29 colon): > 100 µM
TGI (UACC-257 melanoma): > 100 µM
TGI (PC-3 prostate): > 100 µM
TGI (COLO 205 colon): > 100 µM
TGI (HCT-116 colon): > 100 µM
TGI (MDA-MB-435): > 100 µM
TGI (RXF 393 renal): > 100 µM
TGI (OVCAR-5 ovarian): > 100 µM
TGI (MCF7 breast): > 100 µM
TGI (SNB-75 CNS): > 100 µM
TGI (NCI-H23 lung): > 100 µM
TGI (CCRF-CEM leukemia): > 100 µM
TGI (SF-539 CNS): > 100 µM
TGI (HCT-15 colon): > 100 µM
TGI (OVCAR-3 ovarian): > 100 µM
TGI (LOX IMVI melanoma): > 100 µM
TGI (CAKI-1 renal): > 100 µM
TGI (SR leukemia): > 100 µM
TGI (HOP-92 NSCLC): > 100 µM
TGI (IGROV1 ovarian): > 100 µM
TGI (MDA-MB-231 breast): > 100 µM
TGI (M14 melanoma): > 100 µM
TGI (HCC-2998 colon): > 100 µM
TGI (HOP-62 NSCLC): > 100 µM
TGI (SK-MEL-2 melanoma): > 100 µM
TGI (ACHN renal): > 100 µM
TGI (U251 CNS): > 100 µM
TGI (MOLT-4 leukemia): > 100 µM
TGI (KM12 colon): > 100 µM
TGI (786-0 renal): > 100 µM
TGI (A498 renal): > 100 µM
TGI (SN12C renal): > 100 µM
TGI (BT-549 breast): > 100 µM
TGI (HS 578T breast): > 100 µM
TGI (SK-OV-3 ovarian): > 100 µM
TGI (K-562 leukemia): > 100 µM
TGI (SNB-19 CNS): > 100 µM
TGI (RPMI-8226 leukemia): > 100 µM
TGI (NCI-H226 lung): > 100 µM
TGI (SW-620 colon): > 100 µM
TGI (SK-MEL-28 melanoma): > 100 µM
